In patent publication EP4772186A1, “USE AND COMPOSITION OF POSTBIOTIC OF LACTOBACILLUS PARACASEI ET-22” (Inner Mongolia Yili Industrial Group Co., Ltd., priority 2023, dated 2025):

Tested on: indole, hexanoic acid, and propanoic acid
Experiment: SPME-GC-MS of characteristic flavor compounds
Type: cell-based, halitosis subjects (saliva)
Method: Fresh saliva was collected from 10 halitosis subjects (Halimeter index >120). Subjects were required not to consume any food or drink for 2 hours before donating saliva. Saliva was directly spat into a saliva collection tube, 5 ml per person, and mixed. The mixture was centrifuged at 4500 rpm for 10 minutes, and the supernatant was collected, aliquoted, and stored at -80°C for subsequent experimental studies.
(§1) Lysate group: In a headspace vial, 100 µl of saliva was added first, followed by separate addition of ET-22 viable bacteria (1.0×10^9 CFU/ml), ET-22 heat-inactivated bacterial cells (obtained by inactivating viable bacteria at 1.0×10^9 CFU/ml), and lysate (obtained by inactivating and then filtering viable bacteria at 1.0×10^9 CFU/ml), each at 100µl. Then, 800 µl of SHI medium was added. After filling with nitrogen, anaerobic cultivation was performed for 10 hours for loading on machine, and then SPME-GC-MS was used to test the change in content of volatile organic compound.
as §1, with “NAD group:” for “Lysate group:”, “by the” for “by”, “by heat-inactivating” for “by inactivating”, “and NAD (100 µg/ml),” for “and lysate (obtained by inactivating and then filtering viable bacteria at 1.0×10^9 CFU/ml),”, “machine,” for “machine, and”, “the changes” for “the change”
as §1, with “2-hydroxy-3-phenylpropionic acid group:” for “Lysate group:”, “by the” for “by”, “by heat-inactivating” for “by inactivating”, “and 2-hydroxy-3-phenylpropionic acid (100 µg/ml),” for “and lysate (obtained by inactivating and then filtering viable bacteria at 1.0×10^9 CFU/ml),”, “the changes” for “the change”
as §1, with “GP(HYP)GAG group:” for “Lysate group:”, “by the” for “by”, “by heat-inactivating” for “by inactivating”, “and GP(HYP)GAG (100 µg/ml),” for “and lysate (obtained by inactivating and then filtering viable bacteria at 1.0×10^9 CFU/ml),”, “the changes” for “the change”
Peptidoglycan group: In a headspace vial, 100 µl of saliva was added first, followed by separate addition of ET-22 viable bacteria (1.0×10^9 CFU/ml), ET-22 heat-inactivated bacterial cells (same as Example 1), and peptidoglycan (same as Example 1), each at 100µl. Then, 800 µl of SHI medium was added. After filling with nitrogen, anaerobic cultivation was performed for 10 hours for loading on machine, and then SPME-GC-MS was used to test the changes in content of volatile organic compound.
Helium was used as a carrier gas, with a rate remaining at 1.1 mL min-1. The injector temperature was set at 250°C. Oven temperature program was as follows: holding at 40°C for 1 min, then ramping to 120°C at a rate of 8°C/min, followed by increasing to 230°C at a rate of 5°C/min and holding for 10 minutes. The mass spectrometer was operated in electron ionization (EI) mode, with ion source temperature of 230°C, interface temperature of 200°C, and M/Z scan range of 30-400. To identify specific compounds, their mass spectra were compared with those of true compounds given in the NIST 17 database (V.05). The minimum matching quality for forward and reverse matches was 75/100. The flavor characteristic of each compound was determined based on data from the Good Scents Company Information System (http://www.thegoodscentscompany.com). […]

[1] = pure components 100 µg/ml, others from 1.0×10^9 CFU/ml, 10 hours
[2] = relative to ET-22 viable bacteria and heat-inactivated bacteria

O=C(O)C(O)Cc1ccccc1 (stereo not drawn) [2-hydroxy-3-phenylpropionic acid]
significantly decrease: hexanoic acid concentration [1] | indole concentration [1] | propanoic acid concentration [1]
better: intervention effect on hexanoic acid [2] | intervention effect on indole [2] | intervention effect on propanoic acid [2]
